Converted amounts (≈) assume the structure as drawn.
What follows are molecules tested on MRSA EMRSA 15 21698/98 (assay: MIC agar dilution, MRSA strain 41). Settings: Staphylococcus aureus, 22 hrs.
Assay type: cell-based
Method: (§1) Molar equivalent concentrations were used to allow comparison between compounds of differing molecular mass. Due to weighing difficulties, any compound in solid form was melted in a water bath prior to dilution. To make ten-times strength concentrations, which takes into account agar dilution, 0.0352 mmol of each compound was weighed into plastic universal bottles and 4 mL of sterile distilled water (SDW) was added. To produce a homogenous emulsion the universals were vortexed; once achieved the emulsions were serial diluted by adding 2 mL to 2 mL of SDW.
(§2) For every 100 mL of Isosensitest agar (IST) (CM0471; Oxoid, Basingstoke, England), 3.1 g of the IST powder was added to 100 mL SDW (as per manufacturer's instructions) and sterilised for 15 minutes at 121° C. Once sterilised, the molten agar was cooled to 50° C. in a water-bath. Subsequently 4.8 g of CCEY powder (BC2160; Bioconnections, Wetherby, England), also known as Brazier's medium, was added to 100 mL SDW for every 100 mL of agar needed. This was then sterilised for 15 minutes at 121° C. Once sterilised the molten agar was cooled to 50° C. in a water-bath and 4 mL of egg-yolk emulsion (S2073; TCS Biosciences Ltd, Buckingham, United Kingdom) and 1 mL of lysed defibrinated horse blood (HB035; TCS Biosciences Ltd, Buckingham, United Kingdom) were also added for every 100 mL needed. Horse blood lysis is achieved by dilution to half concentration with SDW; when fully lysed the mixture will turn dark red in colour.
(§3) 18 mL agar was added to each universal and then poured into sterile Petri dishes. This step creates a 1/10 dilution resulting in agar plates of the required strength. Control plates for each set of strains were created by adding 18 mL of agar to 2 mL of SDW.
(§4) Suspensions of each bacterial species were prepared with a density equal to that of a 0.5 McFarland standard using a densitometer. All suspensions were made using sterile distilled water and fresh 18-20 hour cultures. As a 0.5 McFarland standard contains 1.5×10^8 CFU/mL and the multipoint inoculators applies 1 μL spots of liquid, each bacterial suspension was diluted 1/15 (20 μL suspension to 280 μL sterile distilled water).
(§5) Bacterial suspensions were prepared from fresh 18-24 hour cultures as previously described. 1 μL of each strain was inoculated onto all 100 agar plates containing a different chemical concentration and the 2 control plates. This was done using a multipoint inoculator which inoculates 20 strains per plate. All plates were incubated for 22 hours at 37° C. in aerobic conditions.
(§6) Each plate was examined for bacterial growth after 22 and 48 hours, with each being incubated in between examinations. A positive result was recorded as growth of ≧10 colonies. A negative result was recorded as growth of <10 colonies as this is equivalent to 99.9% inhibition. The lowest concentration of chemical that inhibited growth was recorded as the MIC. The results are recorded in Table IV below, where the numbers are quoted in mmol/L.
(§7) Given the positive performance of the ethoxylates of lauryl alcohol in reducing the MIC for a number of the micro-organisms tested, further MIC testing of Laureth-1 [C12E1] through to Laureth-8 [C12E8] was conducted on each of the following: • 10 strains of vancomycin-resistant enterococci (VRE)—listed in Table V below; and • 20 strains of methicillin-resistant Staphylococcus aureus (MRSA)—listed in Table VI.
(§8) The alkanol, alkanol derivatives, agar plates, and inocula were all prepared in the same way as described above.
(§9) The plates were examined in the same manner as described above and the results are recorded in Table VII below, where the numbers are quoted in mmol/L.
Work on `CCCCCCCCCCCCOCCOCCOCCOCCOCCOCCO` [L6, Hexaethylene Glycol Monododecyl Ether] yielded an MIC of 110 µM (≈ 49.6 µg/mL).

Same assay, conditions: Staphylococcus aureus, 48 hrs
`CCCCCCCCCCCCOCCOCCOCCOCCOCCOCCO` [L6, Hexaethylene Glycol Monododecyl Ether] was tested, and the MIC was 110 µM (≈ 49.6 µg/mL).

Each molecule was assayed on MRSA BEL 97597 (assay: MIC agar dilution, MRSA strain 33). Settings: Staphylococcus aureus, 22 hrs.
Assay type: cell-based
Method: as §1, §2, §3, §4, §5, §6, §7, §8, §9
With `CCCCCCCCCCCCOCCOCCOCCOCCOCCOCCO` [L6, Hexaethylene Glycol Monododecyl Ether] the MIC was 110 µM (≈ 49.6 µg/mL).

Same assay, conditions: Staphylococcus aureus, 48 hrs
`CCCCCCCCCCCCOCCOCCOCCOCCOCCOCCO` [L6, Hexaethylene Glycol Monododecyl Ether] showed an MIC of 110 µM (≈ 49.6 µg/mL).

The molecules below were run on Enterococcus faecium (VRE) 12185 Clin waste (assay: MIC agar dilution, VRE strain 24). Settings: 22 hrs.
Assay type: cell-based
Method: as §1, §2, §3, §4, §5, §6, §7, §8, §9
In the case of `CCCCCCCCCCCCOCCOCCOCCOCCOCCOCCO` [L6, Hexaethylene Glycol Monododecyl Ether], the MIC is reported as 880 µM (≈ 397 µg/mL).

Same assay, conditions: 48 hrs
For `CCCCCCCCCCCCOCCOCCOCCOCCOCCOCCO` [L6, Hexaethylene Glycol Monododecyl Ether], the MIC was 880 µM (≈ 397 µg/mL).

Each molecule was assayed on MRSA GER 131/98 (Sger Iidc) (assay: MIC agar dilution, MRSA strain 35). Settings: Staphylococcus aureus, 22 hrs.
Assay type: cell-based
Method: as §1, §2, §3, §4, §5, §6, §7, §8, §9
For `CCCCCCCCCCCCOCCOCCOCCOCCOCCOCCO` [L6, Hexaethylene Glycol Monododecyl Ether], the MIC was 110 µM (≈ 49.6 µg/mL).

Same assay, conditions: Staphylococcus aureus, 48 hrs
Molecule `CCCCCCCCCCCCOCCOCCOCCOCCOCCOCCO` [L6, Hexaethylene Glycol Monododecyl Ether] has an MIC of 110 µM (≈ 49.6 µg/mL).

The molecules below were run on MRSA EMRSA 15 1729/98 (assay: MIC agar dilution, MRSA strain 42). Settings: Staphylococcus aureus, 22 hrs.
Assay type: cell-based
Method: as §1, §2, §3, §4, §5, §6, §7, §8, §9
For `CCCCCCCCCCCCOCCOCCOCCOCCOCCOCCO` [L6, Hexaethylene Glycol Monododecyl Ether], the MIC was 110 µM (≈ 49.6 µg/mL).

Same assay, conditions: Staphylococcus aureus, 48 hrs
`CCCCCCCCCCCCOCCOCCOCCOCCOCCOCCO` [L6, Hexaethylene Glycol Monododecyl Ether] showed an MIC of 110 µM (≈ 49.6 µg/mL).

Each molecule was assayed on MRSA EMRSA 16 07924/95 (assay: MIC agar dilution, MRSA strain 49). Settings: Staphylococcus aureus, 22 hrs.
Assay type: cell-based
Method: as §1, §2, §3, §4, §5, §6, §7, §8, §9
`CCCCCCCCCCCCOCCOCCOCCOCCOCCOCCO` [L6, Hexaethylene Glycol Monododecyl Ether] was tested, and the MIC was 110 µM (≈ 49.6 µg/mL).

Same assay, conditions: Staphylococcus aureus, 48 hrs
Work on `CCCCCCCCCCCCOCCOCCOCCOCCOCCOCCO` [L6, Hexaethylene Glycol Monododecyl Ether] yielded an MIC of 110 µM (≈ 49.6 µg/mL).

These molecules were tested on Staphylococcus aureus (MRSA) (assay: MIC agar dilution, micro-organism 12 (11939)). Settings: Staphylococcus aureus, MRSA, 22 h, Staphylococcus aureus (MRSA) 11939; 22 hrs; read-out: MIC.
Assay type: cell-based
How it was run: (§10)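 Agar dilution in Isosensitest/CCEY agar with egg yolk and lysed horse blood; compounds as aqueous emulsions (myristyl and lauryl alcohol with 1-methyl-2-pyrrolidone and Tween 20). 1 µL spots of 1/15-diluted 0.5 McFarland suspensions, 37 °C aerobic, read at 22 and 48 h; MIC (mmol/L) is lowest concentration giving <10 colonies.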
With `CCCCCCCCCCCCOCCOCCOCCOCCOCCOCCO` [L6, Hexaethylene Glycol Monododecyl Ether] the MIC was 110 µM (≈ 49.6 µg/mL).

Same assay, conditions: Staphylococcus aureus, MRSA, 48 h, Staphylococcus aureus (MRSA) 11939; 48 hrs; read-out: MIC
With `CCCCCCCCCCCCOCCOCCOCCOCCOCCOCCO` [L6, Hexaethylene Glycol Monododecyl Ether] the MIC was 110 µM (≈ 49.6 µg/mL).

These molecules were tested on Enterococcus faecium (VRE) 255693 N. Tyneside (assay: MIC agar dilution, VRE strain 22). Settings: 22 hrs.
Assay type: cell-based
Method: as §1, §2, §3, §4, §5, §6, §7, §8, §9
`CCCCCCCCCCCCOCCOCCOCCOCCOCCOCCO` [L6, Hexaethylene Glycol Monododecyl Ether] showed an MIC of 440 µM (≈ 198 µg/mL).

Same assay, conditions: 48 hrs
`CCCCCCCCCCCCOCCOCCOCCOCCOCCOCCO` [L6, Hexaethylene Glycol Monododecyl Ether] was tested, and the MIC was over 880 µM.

Each molecule was assayed on MRSA EMRSA 15 21268/98 (assay: MIC agar dilution, MRSA strain 40). Settings: Staphylococcus aureus, 22 hrs.
Assay type: cell-based
Method: as §1, §2, §3, §4, §5, §6, §7, §8, §9
With `CCCCCCCCCCCCOCCOCCOCCOCCOCCOCCO` [L6, Hexaethylene Glycol Monododecyl Ether] the MIC was 110 µM (≈ 49.6 µg/mL).

Same assay, conditions: Staphylococcus aureus, 48 hrs
Work on `CCCCCCCCCCCCOCCOCCOCCOCCOCCOCCO` [L6, Hexaethylene Glycol Monododecyl Ether] yielded an MIC of 110 µM (≈ 49.6 µg/mL).

The molecules below were run on Enterococcus faecalis (VRE) MB 1969 (assay: MIC agar dilution, VRE strain 27). Settings: 22 hrs.
Assay type: cell-based
Method: as §1, §2, §3, §4, §5, §6, §7, §8, §9
For `CCCCCCCCCCCCOCCOCCOCCOCCOCCOCCO` [L6, Hexaethylene Glycol Monododecyl Ether], the MIC was over 880 µM.

Same assay, conditions: 48 hrs
Molecule `CCCCCCCCCCCCOCCOCCOCCOCCOCCOCCO` [L6, Hexaethylene Glycol Monododecyl Ether] has an MIC of over 880 µM.

The molecules below were run on MRSA BEL 97598 (assay: MIC agar dilution, MRSA strain 34). Settings: Staphylococcus aureus, 22 hrs.
Assay type: cell-based
Method: as §1, §2, §3, §4, §5, §6, §7, §8, §9
`CCCCCCCCCCCCOCCOCCOCCOCCOCCOCCO` [L6, Hexaethylene Glycol Monododecyl Ether] gave an MIC of 220 µM (≈ 99.1 µg/mL).

Same assay, conditions: Staphylococcus aureus, 48 hrs
`CCCCCCCCCCCCOCCOCCOCCOCCOCCOCCO` [L6, Hexaethylene Glycol Monododecyl Ether] showed an MIC of 220 µM (≈ 99.1 µg/mL).

These molecules were tested on Staphylococcus aureus (assay: MIC agar dilution, micro-organism 13 (6571)). Settings: Staphylococcus aureus, 22 h, Staphylococcus aureus 6571; 22 hrs; read-out: MIC.
Assay type: cell-based
How it was run: as §10
`CCCCCCCCCCCCOCCOCCOCCOCCOCCOCCO` [L6, Hexaethylene Glycol Monododecyl Ether] gave an MIC of 110 µM (≈ 49.6 µg/mL).

Same assay, conditions: Staphylococcus aureus, 48 h, Staphylococcus aureus 6571; 48 hrs; read-out: MIC
For `CCCCCCCCCCCCOCCOCCOCCOCCOCCOCCO` [L6, Hexaethylene Glycol Monododecyl Ether], the MIC was 110 µM (≈ 49.6 µg/mL).

Each molecule was assayed on MRSA EMRSA 16 00036/95 (assay: MIC agar dilution, MRSA strain 46). Settings: Staphylococcus aureus, 22 hrs.
Assay type: cell-based
Method: as §1, §2, §3, §4, §5, §6, §7, §8, §9
With `CCCCCCCCCCCCOCCOCCOCCOCCOCCOCCO` [L6, Hexaethylene Glycol Monododecyl Ether] the MIC was 220 µM (≈ 99.1 µg/mL).

Same assay, conditions: Staphylococcus aureus, 48 hrs
`CCCCCCCCCCCCOCCOCCOCCOCCOCCOCCO` [L6, Hexaethylene Glycol Monododecyl Ether] showed an MIC of 440 µM (≈ 198 µg/mL).

From US20130165368A1, “ANTIMICROBIAL COMPOUNDS” (priority 2010, published 2013)
